Results from patent US20260049064A1, “PROTEIN:PROTEIN INTERACTION INHIBITORS” (Purdue Research Foundation, priority 2022, published 2026).

Key:
Assay type in all cases: cell-based
[1] = molecular target: T1, PRMT5:MEP50 protein-protein interaction (Homo sapiens, UniProt O14744); experiment: BiFC drug screen of PRMT5:MEP50 interaction in COS-1 cells; parameters: expressed in transfected cells; host or cells: COS-1; settings: for rank in BiFC screen (inhibition of PRMT5:MEP50): 18 hours
Description: (§1) BiFC Drug Screens: COS-1 cells were grown in DMEM and seeded to 50,000 cells/well of a 12-well plate and allowed to attach for 24 hours. Cells were then transfected with three plasmids pMyc-VN155-PRMT5, pHA-VC-MEP50, and pFLAG-NLS-CFP to visualize the interaction between PRMT5:MEP50. For BiFC screens, the COS-1 cells were treated with compound or DMSO to final concentration (10 μM for compound 1-12 screen and 0.25, 0.50, 0.75, 1.0, and 5.0 μM or subsequent compound 8 screen) six hours after transfection and returned to the incubator. Following 24 hours after transfection, cells were imaged on a Nikon TE-2000U microscope and images for CFP, YFP, and phase contrast were acquired using MetaMorph software (Nikon) with 20× objective. Images were analyzed with ImageJ^70. Regions of Interest (ROI) were selected around each cell, and mean intensity was measured for each selection. A YFP:CFP ratio was calculated for DMSO as well as control treatment cells. The YFP:CFP ratio was then normalized to that of DMSO to generate the BiFC Efficiency score. The lower score indicated less PRMT5:MEP50 PPI detected in a given cell or treatment group. Inhibition (% Inhibition) is calculated as a percent of 100%−the BiFC Efficiency. Referring to FIGS. 6A-6C, for the BiFC screen of compounds 13-22 (including 8a and 8b), COS-1 cells were transfected for 24 hours, treated with 0.5 μM of compounds for 18 hours, and then imaged as described above. Referring to FIG. 6C, for the BiFC screen of compounds 23-26 (including 8a and 8b), COS-1 cells were transfected for 24 hours, treated with 0.25 M of compounds for 18 hours, and then imaged as described above. BiFC drug screens were performed in single biological replicate as a high throughput screen to produce ranked order of compounds, although multiple biological replicate data was used whenever available.

[2] = test system: COS-1 cells; experiment: Cell death seen in COS-1 cells during the BiFC screen; settings: 10 μM
Description: as §1, with “Referring to FIGS. 6A-6C, for the BiFC screen of compounds 13-22 (including 8a and 8b), COS-1 cells were transfected for 24 hours, treated with 0.5 μM of compounds for 18 hours, and then imaged as described above. Referring to FIG. 6C, for the BiFC screen of compounds 23-26 (including 8a and 8b), COS-1 cells were transfected for 24 hours, treated with 0.25 M of compounds for 18 hours, and then imaged as described above. BiFC drug screens were performed in single biological replicate as a high throughput screen to produce ranked order of compounds, although multiple biological replicate data was used whenever available.” left out

[3] = test system: LNCaP cells; experiment: MTT assay / growth of LNCaP cells; settings: for IC50: 72 hours treatment
Description: LNCaP cells were seeded at 7,000 cells per well of a 96-well cell culture plate and incubated 24 hours to allow for attachment. Test compounds were diluted in RPMI-1640/25% DMSO pre-dilutions and added to respective wells of the assay plate to maintain constant concentration of 0.25% DMSO. After addition of compounds, cells were returned to incubator (37° C., 5% CO2) for 72 hours. Following incubation, assay plates were removed from incubator and media aspirated. 30 μL complete RPMI supplemented with 0.5 mg/mL MTT (Sigma) was added to the plate, and plate returned to incubator for 4 hours. Plates were removed, and 88 μL DMSO was added. Plates were shaken at 700 rpm for 1 minute and read on spectrophotometer at 570 nm.

[4] = molecular target: T1, PRMT5:MEP50 protein-protein interaction; experiment: Co-immunoprecipitation western blot in LNCaP cells; settings: 500 nM, 24 hrs, three biological replicates
Description: LNCaP cells were treated with either DMSO or compound 17 (500 nM, 24 hrs) and harvested for Co-IP and WB in lysis buffer composed of 50 mM Tris-HCl, pH 7.4, 100 mM NaCl, 10 mM EDTA, 0.1% Triton X-100, 1 mM DTT, 1 mM PMSF, and 5 μg each of chymostatin, leupeptin, pepstatin A, and […]. Cells were lysed over 1 hour rotating in 4° C. and supernatant cleared. Total lysate (1 mg/mL) was used for Co-IP with 4 μg rabbit anti-PRMT5 pAb (Millipore Sigma 07-405), rabbit anti-MEP50 pAb (Cell Signaling Technologies S2823S) or normal rabbit IgG (Millipore Sigma N01-100 UG) overnight. Antibody-bound proteins were precipitated with Pierce Protein A agarose beads (Thermo Scientific 20333). Antibodies and immunoprecipitated proteins were prepared for western blot by adding 50 μL 2×SDS buffer, boiling at 95° C. for 5 min, and storing at -80° C. or proceeding to western blot. Co-IP product, input sample, or ladder were loaded into a 10% acrylamide/bisacrylamide gel (20 μL Co-IP, 20 μL input (0.4% total), 5 μL ladder per lane). […] Band Intensity was determined with ImageLab software and ImageJ.

[5] = test system: androgen receptor (AR) gene; experiment: RT-qPCR expression of AR in LNCaP cells; settings: 500 nM, 72 hours
Description: (§2) LNCaP cells were seeded to either 6 cm or 10 cm dishes at 800,000 or 2,200,000 cells/dish respectively. Cells were allowed to attach for 24 hours and then subsequently treated with either compound 17 (500 nM) or DMSO for 72 hours. Cells were then harvested with Trizol reagent (Ambion) and RNA integrity was verified via agarose gel electrophoresis. […] was utilized following manufacturer instructions and as described previously, as described in Deng et al., Oncogene 2017, 36 (9), 1223-123; Hsu et al., Mol. Cell. Endocrinol. 2013, 372 (1-2), 12-221; and Zhang et al., Biochim. Biophys. Acta 2014, 1839 (11), 1330-1340, each of which is incorporated herein by reference in its entirety for its teachings regarding same. RT-qPCR was performed with FastStart Universal SYBR Green Master Mix (Thermo Fisher Scientific) and detected on a QuantStudio 6 Flex with QuantStudio Real-Time PCR control software (Thermo Fisher Scientific). QuantStudio Design and Analysis software (Thermo Fisher Scientific) was used for data analysis. Technical triplicates were run for all samples, samples without detectable amplification were deemed undetected. Primer sets were validated via melt curve and agarose gel analysis of RT-qPCR product. AR primers were used as described in Deng et al., Oncogene 2017, 36 (9), 1223-123. […]

[6] = test system: H4R3me2s; experiment: Global histone H4R3me2s western blot in LNCaP cells; settings: 72 hours
Description: For global histone H4R3 and H4R3me2s western blots, cell lysate was prepared in RIPA buffer (10 mM Tris-HCl pH 8.0, 5 mM EDTA, 1% Triton X-100, 0.1% sodium deoxycholate, 0.1% sodium dodecyl sulfate, 150 mM sodium chloride, and 5 μg/mL each chymostatin, leupeptin, pepstatin A, and antipan in DMSO, with 1 mM PMSF and total soluble protein was quantified using Bradford assay. 100 μL lysate was combined with 100 μL 2×SDS buffer, and 20 μg total lysate was loaded into the wells of a 15% acrylamide/bisacrylamide gel. The gel was run for 60 min at 125 V and transferred onto nitrocellulose membrane for 45 min at 100 V. Anti-H4R3 rabbit pAb (Abcam, ab10158) or anti-H4R3me2s rabbit pAb (Abcam, ab5823) was diluted 1:1000 in PBST and incubated overnight at 4° C. Secondary IRDyeR 800CW Donkey anti-Rabbit IgG Secondary Antibody (Li-Cor, 926-32213) was diluted 1:20,000 in PBST and incubated with the membrane, which was then imaged via LiCor Odyssey CLx imager and analyzed with ImageStudioLite software (Li-Cor). Integrated intensity of H4R3me2s band was normalized to H4R3 to determine relative abundance of H4R3me2s across DMSO and Cpd 17-treated samples.

[7] = test system: TP53; experiment: RT-qPCR expression of TP53 in LNCaP cells; settings: 500 nM, 72 hours
Description: as §2

[8] = test system: A549 cells; experiment: IC50 in A549 NSCLC cell line; settings: 72 hours treatment
[9] = test system: RB1; experiment: RT-qPCR expression of RB1 in LNCaP cells; settings: 500 nM, 72 hours
Description: as §2

[10] = test system: PTEN; experiment: RT-qPCR expression of PTEN in LNCaP cells; settings: 500 nM, 72 hours
Description: as §2

[11] = test system: Involucrine (IVL) gene; experiment: RT-qPCR expression of IVL in LNCaP cells; settings: 500 nM, 72 hours
Description: as §2

T1 sequence (O14744 whole entry): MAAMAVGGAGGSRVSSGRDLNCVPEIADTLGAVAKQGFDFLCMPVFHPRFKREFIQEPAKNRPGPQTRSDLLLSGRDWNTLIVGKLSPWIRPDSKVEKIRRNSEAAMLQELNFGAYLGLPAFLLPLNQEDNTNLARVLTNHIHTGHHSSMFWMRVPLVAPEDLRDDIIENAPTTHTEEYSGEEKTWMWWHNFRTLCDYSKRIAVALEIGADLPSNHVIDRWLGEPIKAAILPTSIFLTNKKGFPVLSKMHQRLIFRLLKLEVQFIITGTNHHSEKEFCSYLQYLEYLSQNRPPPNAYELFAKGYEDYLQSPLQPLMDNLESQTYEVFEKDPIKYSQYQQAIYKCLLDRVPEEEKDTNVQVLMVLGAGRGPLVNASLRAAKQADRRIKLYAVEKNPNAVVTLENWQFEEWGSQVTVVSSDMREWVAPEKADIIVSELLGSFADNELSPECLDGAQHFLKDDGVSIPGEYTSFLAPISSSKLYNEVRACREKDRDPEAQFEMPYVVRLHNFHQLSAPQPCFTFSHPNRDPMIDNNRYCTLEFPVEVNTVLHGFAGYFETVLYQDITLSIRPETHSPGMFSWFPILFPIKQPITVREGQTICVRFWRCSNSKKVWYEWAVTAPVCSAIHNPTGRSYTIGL

| SMILES | inhibition at 0.25 µM ([1]; 0.25 μM, read-out: inhibition of the BiFC efficiency) | rank in BiFC screen (inhibition of PRMT5:MEP50) ([1]; 500 nM) | dose-response of BiFC efficiency inhibition ([1]; 0.25-5 μM) | cell death on treatment in the BiFC assay [2] | IC50 ([3]; Homo sapiens, LNCaP, 72 h) | decrease in amount of MEP50 co-immunoprecipitated with PRMT5 bait [4] | expression of PRMT5:pICln-regulated AR gene [5] | dose dependence of global H4R3me2s levels ([6]; LNCaP cells, 250, 500 and 1000 nM) | decrease of global H4R3me2s ([6]; LNCaP cells) | expression of TP53 [7] | rank in BiFC screen (inhibition of PRMT5:MEP50) ([1]; 250 nM) | IC50 [8] | IC50 ([8]; Homo sapiens, A549, 72 h) | expression of RB1 [9] | IC50 [3] | suppression of growth and induction of cell death ([3]; LNCaP cells, 250 nM, 500 nM and 1000 nM, 72 hours) | expression of PTEN [10] | expression of PRMT5:MEP50-regulated IVL gene [11] |
| --- | --- | --- | --- | --- | --- | --- | --- | --- | --- | --- | --- | --- | --- | --- | --- | --- | --- | --- |
| Cc1noc(C)c1COc1cccc(C(=O)NNC(=O)c2ccc3ccccc3n2)c1 [compound 8, N′-(3-((3,5-dimethylisoxazol-4-yl)methoxy)benzoyl)quinoline-2-carbohydrazide] | 41% | top four inhibitors | dose-dependent manner | significant cell death | 1660 nM |  |  |  |  |  |  |  |  |  |  |  |  |  |
| Cc1noc(C)c1COc1cccc(C(=O)NNC(=O)c2ccc(C(F)(F)F)cn2)c1 [compound 15, N′-(3-((3,5-dimethylisoxazol-4-yl)methoxy)benzoyl)-5-(trifluoromethyl)picolinohydrazide] |  | top four inhibitors |  |  |  |  |  |  |  |  |  |  |  |  |  |  |  |  |
| CCc1noc(C)c1COc1cccc(C(=O)NNC(=O)c2ccc3ccccc3n2)c1 [compound 17, N′-(3-((3-ethyl-5-methylisoxazol-4-yl)methoxy)benzoyl)quinoline-2-carbohydrazide] |  | top four inhibitors |  |  | < 450 nM | 65.4% | without significantly altering expression | decreased in a dose-dependent manner | 65% | to some extent TP53, albeit statistically insignificant | most effective | 447 nM | < 450 nM | upregulation | 430 nM | both suppression of growth and induction of cell death in a dose-dependent manner | upregulation | significantly de-represses |
